Results from patent US7902373B2 (Pfizer Inc, priority 2006, dated 2011).

Each molecule was assayed against human recombinant H-PGDS (Homo sapiens, UniProt O60760) (assay: Fluorescence intensity h-PGDS TBA enzyme assay). Details: Examples up to 622 (and 3a, 3b).
Format: biochemical

human recombinant H-PGDS, sequence (O60760 whole entry): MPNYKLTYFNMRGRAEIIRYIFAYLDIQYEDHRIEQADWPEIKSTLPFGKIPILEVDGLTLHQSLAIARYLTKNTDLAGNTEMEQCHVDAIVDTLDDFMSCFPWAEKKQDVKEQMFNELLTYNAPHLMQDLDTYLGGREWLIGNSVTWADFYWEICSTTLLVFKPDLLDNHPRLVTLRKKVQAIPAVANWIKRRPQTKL

SMILES	IC50
COCc1cc(N2CCC(NC(=O)c3ccc(-c4cccc(F)c4)nc3)CC2)nc(-c2csc(C)n2)n1 [Example 73, 6-(3-Fluorophenyl)-N-{1-[6-(methoxymethyl)-2-(2-methyl-13-thiazol-4-yl)pyrimidin-4-yl]piperidin-4-yl}nicotinamide]	2.89 nM
O=C(NC1CCN(c2ncccc2C(=O)c2ccccn2)CC1)c1ccc(-c2cccc(F)c2)nc1 [Example 74, 6-(3-Fluorophenyl)-N-{1-[3-(pyridin-2-ylcarbonyl)pyridin-2-yl]piperidin-4-yl}nicotinamide]	0.293 nM
CC(=O)c1cc(C#N)c(N2CCC(NC(=O)c3ccc(-c4cccc(F)c4)nc3)CC2)nc1C [Example 76, N-[1-(5-Acetyl-3-cyano-6-methylpyridin-2-yl)piperidin-4-yl]-6-(3-fluorophenyl)nicotinamide]	1.35 nM
N#Cc1ccccc1C(=O)c1cccnc1N1CCC(NC(=O)c2ccc(-c3cccc(F)c3)nc2)CC1 [Example 77, N-{1-[3-(2-Cyanobenzoyl)pyridin-2-yl]piperidin-4-yl}-6-(3-fluorophenyl)nicotinamide]	0.425 nM
COC(=O)c1cnc(N)nc1N1CCC(NC(=O)c2ccc(-c3cccc(F)c3)nc2)CC1 [Example 78, Methyl 2-amino-4-[4-({[6-(3-fluorophenyl)pyridin-3-yl]carbonyl}amino)piperidin-1-yl]pyrimidine-5-carboxylate]	0.148 nM
O=C(NC1CCN(c2ccc(C(=O)NCCN3CCOCC3)nn2)CC1)c1ccc(-c2cccc(F)c2)nc1 [Example 84, 6-[4-({[6-(3-Fluorophenyl)pyridin-3-yl]carbonyl}amino)piperidin-1-yl]-N-(2-morpholin-4-ylethyl)pyridazine-3-carboxamide]	0.635 nM
Cc1noc(NC(=O)c2ccc(N3CCC(NC(=O)c4ccc(-c5cccc(F)c5)nc4)CC3)nn2)c1C [Example 86, N-(3,4-Dimethylisoxazol-5-yl)-6-[4-({[6-(3-fluorophenyl)pyridin-3-yl]carbonyl}amino)piperidin-1-yl]pyridazine-3-carboxamide]	0.876 nM
CCN1CCN(C(=O)c2ccc(N3CCC(NC(=O)c4ccc(-c5cccc(F)c5)nc4)CC3)nn2)CC1 [Example 87, N-(1-{6-[(4-Ethylpiperazin-1-yl)carbonyl]pyridazin-3-yl}piperidin-4-yl)-6-(3-fluorophenyl)nicotinamide]	0.538 nM
Cc1nn(C)c(C)c1NC(=O)c1ccc(N2CCC(NC(=O)c3ccc(-c4cccc(F)c4)nc3)CC2)nn1 [Example 89, 6-[4-({[6-(3-Fluorophenyl)pyridin-3-yl]carbonyl}amino)piperidin-1-yl]-N-(1,3,5-trimethyl-1H-pyrazol-4-yl)pyridazine-3-carboxamide]	0.365 nM
COc1ccc2oc(N3CCC(NC(=O)c4ccc(-c5cccc(F)c5)nc4)CC3)nc2c1 [Example 91, 6-(3-Fluorophenyl)-N-[1-(5-methoxy-13-benzoxazol-2-yl)piperidin-4-yl]nicotinamide]	0.603 nM
O=C(NC1CCN(c2nnnn2-c2ccc3c(c2)CCC3)CC1)c1ccc(-c2cccc(F)c2)nc1 [Example 92, N-{1-[1-(2,3-Dihydro-1H-inden-5-yl)-1H-tetrazol 5-yl]piperidin-4-yl}-6-(3-fluorophenyl)nicotinamide]	5.15 nM
CCOC(=O)c1cccc(-n2nnnc2N2CCC(NC(=O)c3ccc(-c4cccc(F)c4)nc3)CC2)c1 [Example 98, Ethyl 3-{5-[4-({[6-(3-fluorophenyl)pyridin-3-yl]carbonyl}amino)piperidin-1-yl]-1H-tetrazol-1-yl}benzoate]	3.7 nM
O=C(NC1CCN(c2nnnn2CC2CC2)CC1)c1ccc(-c2cccc(F)c2)nc1 [Example 99, N-{1-[1-(Cyclopropylmethyl)-1H-tetrazol-5-yl]piperidin-4-yl}-6-(3-fluorophenyl)nicotinamide]	2.08 nM
COCC(C)n1nnnc1N1CCC(NC(=O)c2ccc(-c3cccc(F)c3)nc2)CC1 (stereo not drawn) [Example 101, 6-(3-fluorophenyl)-N-{1-[1-(2-methoxy-1-methylethyl)-1H-tetrazol-5-yl]piperidin-4-yl}nicotinamide]	1.4 nM
CCOc1cccc(-n2nnnc2N2CCC(NC(=O)c3ccc(-c4cccc(F)c4)nc3)CC2)c1 [Example 103, N-{1-[1-(3-Ethoxyphenyl)-1H-tetrazol-5-yl]piperidin-4-yl}-6-(3-fluorophenyl)nicotinamide]	2.15 nM
C[C@H](c1ccccc1)n1nnnc1N1CCC(NC(=O)c2ccc(-c3cccc(F)c3)nc2)CC1 [Example 104, 6-(3-Fluorophenyl)-N-(1-{1-[(1R)-1-phenylethyl]-1H-tetrazol-5-yl}piperidin-4-yl)nicotinamide]	3.18 nM
O=C(NC1CCN(c2ncnc3c2ncn3CC(F)(F)F)CC1)c1ccc(-c2cccc(F)c2)nc1 [Example 106]	0.873 nM
O=C(NC1CCN(c2ncnc3c2ncn3CCN2CCCCC2)CC1)c1ccc(-c2cccc(F)c2)nc1 [Example 107, 6-(3-Fluorophenyl)-N-{1-[9-(2-piperidin-1-ylethyl)-9H-purin-6-yl]piperidin-4-yl}nicotinamide]	0.804 nM
COc1cccc(Cn2nnnc2N2CCC(NC(=O)c3ccc(-c4cccc(F)c4)nc3)CC2)c1 [Example 108, 6-(3-Fluorophenyl)-N-{1-[1-(3-methoxybenzyl)-1H-tetrazol-5-yl}piperidin-4-yl)nicotinamide]	1.29 nM
Cn1c(-c2cccc(O)c2)nc2c(N3CCC(NC(=O)c4ccc(-c5cccc(F)c5)nc4)CC3)ncnc21 [Example 109, 6-(3-Fluorophenyl)-N-{1-[8-(3-hydroxyphenyl)-9-methyl-9H-purin-6-yl]piperidin-4-yl}nicotinamide]	2.74 nM

Results, then the molecule that gave them:

IC50	SMILES
4.97 nM	O=C(NC1CCN(c2ncccc2C(=O)NC2Cc3ccccc3C2)CC1)c1ccc(-c2cccc(F)c2)nc1 [Example 72, N-(2,3-Dihydro-1H-inden-2-yl)-2-[4-({[6-(3-fluorophenyl)pyridin-3-yl]carbonyl}amino)piperidin-1-yl]nicotinamide]
0.314 nM	O=C(NC1CCN(c2ncccc2C(=O)c2nccs2)CC1)c1ccc(-c2cccc(F)c2)nc1 [Example 75, 6-(3-Fluorophenyl)-N-{1-[3-(1,3-thiazol-2-ylcarbonyl)pyridin-2-yl]piperidin-4-yl}nicotinamide]
2.28 nM	O=C(NC1CCN(c2nccnc2Cc2ccccc2)CC1)c1ccc(-c2cccc(F)c2)nc1 [Example 79, N-[1-(3-Benzylpyrazin-2-yl)piperidin-4-yl]-6-(3-fluorophenyl)nicotinamide]
0.408 nM	CNC(=O)c1ccc(N2CCC(NC(=O)c3ccc(-c4cccc(F)c4)nc3)CC2)nn1 [Example 80, 6-[4-({[6-(3-Fluorophenyl)pyridin-3-yl]carbonyl}amino)piperidin-1-yl]-N-methylpyridazine-3-carboxamide]
0.947 nM	CCN1CCCC1CNC(=O)c1ccc(N2CCC(NC(=O)c3ccc(-c4cccc(F)c4)nc3)CC2)nn1 (stereo not drawn) [Example 81, N-[(1-Ethylpyrrolidin-2-yl)methyl]-6-[4-({[6-(3-fluorophenyl)pyridin-3-yl]carbonyl}amino)piperidin-1-yl]pyridazine-3-carboxamide]
1.05 nM	CCCN(C)C(=O)c1ccc(N2CCC(NC(=O)c3ccc(-c4cccc(F)c4)nc3)CC2)nn1 [Example 82, 6-[4-({[6-(3-Fluorophenyl)pyridin-3-yl]carbonyl}amino)piperidin-1-yl]-N-methyl-N-propylpyridazine-3-carboxamide]
0.37 nM	CCNC(=O)c1ccc(N2CCC(NC(=O)c3ccc(-c4cccc(F)c4)nc3)CC2)nn1 [Example 83, N-Ethyl-6-[4-({[6-(3-fluorophenyl)pyridin-3-yl]carbonyl}amino)piperidin-1-yl]pyridazine-3-carboxamide]
0.72 nM	O=C(NC1CCN(c2ccc(C(=O)Nc3ccon3)nn2)CC1)c1ccc(-c2cccc(F)c2)nc1 [Example 85, 6-[4-({[6-(3-Fluorophenyl)pyridin-3-yl]carbonyl}amino)piperidin-1-yl]-N-isoxazol-3-ylpyridazine-3-carboxamide]
0.305 nM	CCC(CO)n1cnc2c(N3CCC(NC(=O)c4ccc(-c5cccc(F)c5)nc4)CC3)ncnc21 (stereo not drawn) [Example 90, 6-(3-Fluorophenyl)-N-(1-{9-[1-(hydroxymethyl)propyl]-9H-purin-6-yl}piperidin-4-yl)nicotinamide]
17.9 nM	C=CCC(C)(C)c1nc2c(N3CCC(NC(=O)c4ccc(-c5cccc(F)c5)nc4)CC3)ncnc2n1C [Example 93, N-{1-[8-(1,1-Dimethylbut-3-en-1-yl)-9-methyl-9H-purin-6-yl]piperidin-4-yl}-6-(3-fluorophenyl)nicotinamide]
0.426 nM	O=C(NC1CCN(c2nnnn2-c2ccccc2F)CC1)c1ccc(-c2cccc(F)c2)nc1 [Example 94, 6-(3-Fluorophenyl)-N-{1-[1-(2-fluorophenyl)-1H-tetrazol-5-yl]piperidin-4-yl}nicotinamide]
0.764 nM	Cc1ccc(-n2nnnc2N2CCC(NC(=O)c3ccc(-c4cccc(F)c4)nc3)CC2)cc1 [Example 95, 6-(3-Fluorophenyl)-N-{1-[1-(4-methylphenyl)-1H-tetrazol-5-yl]piperidin-4-yl}nicotinamide]
1.19 nM	COc1ccccc1Cn1nnnc1N1CCC(NC(=O)c2ccc(-c3cccc(F)c3)nc2)CC1 [Example 96, 6-(3-Fluorophenyl)-N-{1-[1-(2-methoxybenzyl)-1H-tetrazol-5-yl]piperidin-4-yl}nicotinamide]
0.319 nM	CC(C)n1nnnc1N1CCC(NC(=O)c2ccc(-c3cccc(F)c3)nc2)CC1 [Example 97, 6-(3-Fluorophenyl)-N-[1-(1-isopropyl-1H-tetrazol-5-yl)piperidin-4-yl]nicotinamide]
1.53 nM	CC(C)OC(=O)Cn1nnnc1N1CCC(NC(=O)c2ccc(-c3cccc(F)c3)nc2)CC1 [Example 100, Isopropyl {5-[4-({[6-(3-fluorophenyl)pyridin-3-yl]carbonyl}amino)piperidin-1-yl]-1H-tetrazol-1-yl}acetate]
0.943 nM	N#Cc1ccc(Cn2nnnc2N2CCC(NC(=O)c3ccc(-c4cccc(F)c4)nc3)CC2)cc1 [Example 102, N-{1-[1-(4-Cyanobenzyl)-1H-tetrazol-5-yl]piperidin-4-yl}-6-(3-fluorophenyl)nicotinamide]
